Results: the NIST ThermoML archive (doi:10.1021/je500977g)

Key:
[1] = Liquid, Vibrating tube method
[2] = mn = molality of the nth substance listed, in mol/kg; details: Liquid, m2 = 0

O [water]
mass density [kg/m3], [1]
Details | 101 kPa | 10000 kPa | 25000 kPa | 50000 kPa | 75000 kPa | 100000 kPa
278.15 K | 999.96 | 1004.78 | 1011.88 | 1023.2 | 1033.92 | 1044.08
288.15 K | – | 1003.67 | 1010.42 | 1021.21 | 1031.47 | 1041.23
298.15 K | – | 1001.47 | 1007.99 | 1018.44 | 1028.38 | 1037.86
308.15 K | – | 998.36 | 1004.75 | 1014.97 | 1024.71 | 1034
323.15 K | 988.03 | 992.31 | 998.61 | 1008.68 | 1018.27 | 1027.42

O [water] + C[N+](C)(C)[O-]
mass density [kg/m3], [2]
Details | 278.15 K | 288.15 K | 298.15 K | 308.15 K | 323.15 K
101 kPa, Vibrating tube method | 999.96 | – | – | – | 988.03
10000 kPa, Constant-volume piezometry | 1004.78 | 1003.67 | 1001.47 | 998.36 | 992.31
25000 kPa, Constant-volume piezometry | 1011.88 | 1010.42 | 1007.99 | 1004.75 | 998.61
50000 kPa, Constant-volume piezometry | 1023.2 | 1021.21 | 1018.44 | 1014.97 | 1008.68
75000 kPa, Constant-volume piezometry | 1033.92 | 1031.47 | 1028.38 | 1024.71 | 1018.27
100000 kPa, Constant-volume piezometry | 1044.08 | 1041.23 | 1037.86 | 1034 | 1027.42
